Measurements reported in US4987150A, “Agent for inhibiting binding of 5-dihydro-testosterone with androgen receptor as well as process for obtaining same” (Kabushiki Kaisha Vitamin Kenkyusho, priority 1987, dated 1991).

Key:
[1] = biological target: T1, androgen receptor (Mesocricetus auratus, UniProt A0A1U7QL32); assay: Inhibition of [3H]R1881 binding with androgen receptor (Pharmacological Test Example 1; also Test Example 2); set-up: species or system male Syrian hamster (sebaceous gland in flank organ); conditions: for IC50: chemically synthesized xanthones, calculated from inhibition rate, 1 nM [3H]R1881, 0° C., 16 hours, read-out: Concentration for 50% Inhibition
T1 construct: a sebaceous gland in flank organ was excised and homogenized; from tissue; host or cells: male Syrian hamster flank organ sebaceous gland, 16 hours after castration; supernatant of homogenate centrifuged at 30,000 rpm for 1 hour
T1 sequence (A0A1U7QL32 1-900): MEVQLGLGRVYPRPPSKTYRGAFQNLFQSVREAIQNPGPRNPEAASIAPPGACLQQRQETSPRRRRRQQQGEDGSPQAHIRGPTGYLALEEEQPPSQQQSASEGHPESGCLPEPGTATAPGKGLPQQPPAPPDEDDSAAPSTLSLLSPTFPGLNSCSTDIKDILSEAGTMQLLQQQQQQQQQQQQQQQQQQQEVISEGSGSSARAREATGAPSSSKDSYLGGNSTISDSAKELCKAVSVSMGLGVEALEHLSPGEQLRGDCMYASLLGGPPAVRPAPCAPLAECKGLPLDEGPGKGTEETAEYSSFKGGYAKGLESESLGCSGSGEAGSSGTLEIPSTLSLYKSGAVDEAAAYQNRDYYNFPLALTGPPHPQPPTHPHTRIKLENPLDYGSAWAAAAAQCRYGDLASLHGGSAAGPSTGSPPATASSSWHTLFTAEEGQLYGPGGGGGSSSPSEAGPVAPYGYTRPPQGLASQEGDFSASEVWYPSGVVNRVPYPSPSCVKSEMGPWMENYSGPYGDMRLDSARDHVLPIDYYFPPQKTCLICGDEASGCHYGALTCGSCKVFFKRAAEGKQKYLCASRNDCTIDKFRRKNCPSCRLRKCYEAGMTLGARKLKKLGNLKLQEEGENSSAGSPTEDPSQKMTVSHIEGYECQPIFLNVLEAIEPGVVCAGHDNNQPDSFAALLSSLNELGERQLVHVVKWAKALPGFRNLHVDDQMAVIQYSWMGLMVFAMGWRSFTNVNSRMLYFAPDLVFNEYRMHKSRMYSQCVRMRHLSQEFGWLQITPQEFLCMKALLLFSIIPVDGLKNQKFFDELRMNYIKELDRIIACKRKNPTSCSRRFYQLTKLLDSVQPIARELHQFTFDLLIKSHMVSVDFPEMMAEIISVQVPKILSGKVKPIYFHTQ
Description: (a) Preparation of androgen receptor
From a male Syrian hamster 16 hours after castration, a sebaceous gland in flank organ was excised and homogenized in 5-10 times (volume) of 50 mM-Tris-HCl buffer (pH 7.4) containing 1.5 mM-EDTA, 1 mM-DTT, 10 mM-Na2 MoO4, and 10% (w/v) glycerol. The homogenate was centrifuged at 3,000 rpm and 0°-4° C. for 10 minutes to obtain the supernatant, which was further centrifuged at 30,000 rpm and 0°-4° C. for 1 hour to obtain the supernatant to be employed as androgen receptor.
(b) Determination of inhibitory activity
Then the mixture was added with a suspension (500 μl) of 0.5% charcoal and 0.05% dextran T-70. After standing at 0° C. for 10 minutes, the mixture was centrifuged at 3,000 rpm for 10 minutes. The supernatent (300 μl) was mixed with a liquid scintillator to measure the radioactivity due to binding of [^3 H]R1881 with the androgen receptor in scintillation counter. The inhibition rate of each extract was calculated according to the following equation.
Inhibition (%)=[(c-s)/c]×100 […]
c: specific binding amount of [^3 H]R1881 with androgen receptor without addition of test sample; and s: specific binding amount of [^3 H]R1881 with androgen receptor with addition of the test sample.

[2] = test system: 5α-reductase; conditions: reported in Jap. Pat. No. 60-126218 (A); cited from earlier work

Structure (SMILES) | IC50 [1] [µM] | also measured
O=c1c2ccccc2oc2cc(O)cc(O)c12 [G] | 53 | 
O=c1c2cccc(O)c2oc2cc(O)cc(O)c12 [D] | 34 | 
O=c1c2c(O)cc(O)cc2oc2c(O)ccc(O)c12 [A] | 8 | 
O=c1c2ccc(O)cc2oc2cc(O)cc(O)c12 [E] | 4.1 | 
O=c1c2c(O)cc(O)cc2oc2c(O)ccc(O)c12 [Test sample A, 1,3,5,8-Tetrahydroxyxanthone] |  | inhibition of binding of 5α-DHT with androgen receptor ([1]; statement in words): shows the inhibition of binding of 5α-DHT with androgen receptor
O=c1c2ccc(O)cc2oc2cccc(O)c12 [H] | 7.6 | 
O=c1c2ccc(O)cc2oc2c(O)ccc(O)c12 [C] | 1.8 | 
O=c1c2c(O)cccc2oc2cc(O)cc(O)c12 [F] | 20 | 
O=c1c2c(O)cc(O)cc2oc2cc(O)cc(O)c12 [B] | 5.1 | 
CC1(C)CC[C@]2(C(=O)O)CC[C@]3(C)C(=CC[C@@H]4[C@@]5(C)CC[C@H](O)C(C)(C)[C@@H]5CC[C@]43C)[C@@H]2C1 [oleanolic acid] |  | inhibition of the activity of 5α-reductase [2]: showing the inhibition
